# Measured values as given in ChEMBL document CHEMBL4265944, “Novel amide derivatives of 1,3-dimethyl-2,6-dioxopurin-7-yl-alkylcarboxylic acids as multifunctional TRPA1 antagonists and PDE4/7 inhibitors: A new approach for the treatment of pain” (Eur J Med Chem, 2018).
# Activity calls are given as the source filed them. The calls are words filed in the database; no cut-off is given here.
# Assays:
# Mus musculus [1] = experiment: Antiinflammatory activity in formalin-induced nociception ip dosed Swiss CD-1 mouse model assessed as time spent on licking or biting formalin injected right hind paw […] measured during phase 2; format: functional; details: Swiss CD-1, ip
# Rattus norvegicus [2] = experiment: Antiinflammatory activity in Wistar rat assessed as inhibition of LPS-induced TNF-alpha level at 50 mg/kg, ip measured at 2 hrs post dose by ELISA relative to control; format: functional
# Mus musculus [3] = experiment: Antiinflammatory activity in formalin-induced nociception Swiss CD-1 mouse model assessed as time spent on licking or biting formalin injected right hind paw during neurogenic phase at 10 mg/kg, ip measured during phase 1 (reference value: 33 +/- 1.45 sec); format: functional
# Rattus norvegicus [4] = experiment: Anti-inflammatory activity in Wistar rat assessed as inhibition of carrageenan-induced paw edema at 20 mg/kg, ip measured at 1 hr post dose relative to control; format: functional
# Mus musculus [5] = experiment: Antiinflammatory activity in formalin-induced nociception Swiss CD-1 mouse model assessed as time spent on licking or biting formalin injected right hind paw during neurogenic phase at 5 mg/kg, ip measured during phase 1 (reference value: 33 +/- 1.45 sec); format: functional
# [6] = target: Transient receptor potential cation channel subfamily A member 1 (Homo sapiens) (UniProt O75762); experiment: Antagonist activity at human TRPA1 expressed in HEK293 cells assessed as decrease in flufenamic acid-evoked increase in intracellular calcium level at 1 uM measured for 180 secs with 1 sec interval by Fluo4-AM dye-based fluorescence assay relative to control; format: cell-based
# Sequence of Transient receptor potential cation channel subfamily A member 1 (Homo sapiens) (O75762 whole entry): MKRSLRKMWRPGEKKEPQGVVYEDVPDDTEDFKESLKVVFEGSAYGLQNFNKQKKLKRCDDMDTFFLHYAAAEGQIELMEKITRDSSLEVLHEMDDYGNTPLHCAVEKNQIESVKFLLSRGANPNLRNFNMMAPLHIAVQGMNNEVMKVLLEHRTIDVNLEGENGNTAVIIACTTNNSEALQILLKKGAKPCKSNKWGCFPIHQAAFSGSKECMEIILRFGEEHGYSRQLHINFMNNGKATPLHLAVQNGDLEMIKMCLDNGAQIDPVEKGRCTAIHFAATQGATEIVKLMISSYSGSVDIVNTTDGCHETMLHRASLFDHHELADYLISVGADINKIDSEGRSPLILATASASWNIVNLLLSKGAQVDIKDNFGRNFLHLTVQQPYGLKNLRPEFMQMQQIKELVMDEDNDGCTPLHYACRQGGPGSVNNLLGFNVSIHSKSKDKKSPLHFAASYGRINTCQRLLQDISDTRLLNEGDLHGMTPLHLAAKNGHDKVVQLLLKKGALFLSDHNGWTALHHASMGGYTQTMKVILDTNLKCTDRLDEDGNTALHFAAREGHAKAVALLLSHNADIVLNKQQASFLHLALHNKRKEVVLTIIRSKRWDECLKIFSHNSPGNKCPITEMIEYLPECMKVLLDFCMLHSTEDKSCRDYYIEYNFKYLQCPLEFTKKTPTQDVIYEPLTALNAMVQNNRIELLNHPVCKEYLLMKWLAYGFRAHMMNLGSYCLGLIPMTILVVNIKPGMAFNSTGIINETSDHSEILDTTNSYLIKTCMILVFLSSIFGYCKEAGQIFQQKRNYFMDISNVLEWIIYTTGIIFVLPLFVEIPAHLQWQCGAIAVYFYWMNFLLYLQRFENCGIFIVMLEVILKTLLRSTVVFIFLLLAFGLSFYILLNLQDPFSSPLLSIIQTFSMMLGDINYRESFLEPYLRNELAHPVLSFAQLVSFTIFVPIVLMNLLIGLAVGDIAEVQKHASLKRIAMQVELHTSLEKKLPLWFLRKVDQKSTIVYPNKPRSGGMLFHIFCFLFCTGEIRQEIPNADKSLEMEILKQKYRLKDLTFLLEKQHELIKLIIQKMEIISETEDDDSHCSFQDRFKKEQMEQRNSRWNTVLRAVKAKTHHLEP
# Rattus norvegicus [7] = experiment: Antiallodynic activity in Wistar rat assessed as reduction in oxaliplatin-induced neuropathic pain in late phase by measuring paw withdrawal latency time at 1 to 10 mg/kg, ip measured after 60 secs by cold plate test; format: functional, organism-based
# Rattus norvegicus [8] = experiment: Anti-inflammatory activity in Wistar rat assessed as inhibition of carrageenan-induced paw edema at 20 mg/kg, ip measured at 3 hrs post dose relative to control; format: functional
# [9] = target: 3',5'-cyclic-AMP phosphodiesterase 4B (Homo sapiens, UniProt Q07343); experiment: Inhibition of recombinant human PDE4B using cAMP as substrate after 10 mins by PDE-Glo Phosphodiesterase Assay
# Sequence of 3',5'-cyclic-AMP phosphodiesterase 4B (Q07343 whole entry): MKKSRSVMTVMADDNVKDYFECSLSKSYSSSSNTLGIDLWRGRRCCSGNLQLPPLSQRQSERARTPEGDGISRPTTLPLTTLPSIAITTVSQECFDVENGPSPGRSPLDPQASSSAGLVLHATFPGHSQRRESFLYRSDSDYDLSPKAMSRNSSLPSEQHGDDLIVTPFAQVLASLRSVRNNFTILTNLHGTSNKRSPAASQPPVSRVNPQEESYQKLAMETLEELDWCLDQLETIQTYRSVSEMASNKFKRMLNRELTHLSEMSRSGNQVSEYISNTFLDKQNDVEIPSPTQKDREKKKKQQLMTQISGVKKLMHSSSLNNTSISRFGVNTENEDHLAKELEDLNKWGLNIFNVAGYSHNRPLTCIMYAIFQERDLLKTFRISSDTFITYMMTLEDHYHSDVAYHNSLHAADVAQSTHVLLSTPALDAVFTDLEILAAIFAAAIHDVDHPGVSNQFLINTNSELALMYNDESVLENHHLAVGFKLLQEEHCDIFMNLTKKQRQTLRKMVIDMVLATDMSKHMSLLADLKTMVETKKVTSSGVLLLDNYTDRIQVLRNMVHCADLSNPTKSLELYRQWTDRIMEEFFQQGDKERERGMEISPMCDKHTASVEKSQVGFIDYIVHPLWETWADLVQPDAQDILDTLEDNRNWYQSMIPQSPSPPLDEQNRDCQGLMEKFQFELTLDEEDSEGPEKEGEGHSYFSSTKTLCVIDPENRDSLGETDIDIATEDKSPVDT
# Mus musculus [10] = experiment: Antiinflammatory activity in formalin-induced nociception Swiss CD-1 mouse model assessed as time spent on licking or biting formalin injected right hind paw […] at 5 mg/kg, ip measured during phase 2 (reference value: 83.63 +/- 12.98 sec); format: functional
# Mus musculus [11] = experiment: Potency index, ratio of ED50 for HC-030031 to test compound ED50 for formalin-induced nociception ip dosed Swiss CD-1 mouse model assessed as time spent on licking or biting formalin injected right hind paw […] measured during phase 2; format: functional
# [12] = Plasma concentration in Wistar rat model of LPS-induced inflammation at 50 mg/kg, ip measured at 2 hrs post dose by HPLC method; format: ADME, organism-based
# Rattus norvegicus [13] = experiment: Antiallodynic activity in Wistar rat assessed as reduction in oxaliplatin-induced neuropathic pain in early phase by measuring paw withdrawal latency time at 1 to 10 mg/kg, ip measured after 60 secs by cold plate test; format: functional, organism-based
# [14] = target: Transient receptor potential cation channel subfamily A member 1 (Homo sapiens) (UniProt O75762); experiment: Antagonist activity at human TRPA1 expressed in HEK293 cells assessed as decrease in flufenamic acid-evoked increase in intracellular calcium level at 10 uM measured for 180 secs with 1 sec interval by Fluo4-AM dye-based fluorescence assay relative to control; format: cell-based
# Mus musculus [15] = experiment: Antiinflammatory activity in formalin-induced nociception Swiss CD-1 mouse model assessed as time spent on licking or biting formalin injected right hind paw during […] phase at 2.5 mg/kg, ip measured during phase 2 (reference value: 83.63 +/- 12.98 sec); format: functional
# [16] = target: High affinity 3',5'-cyclic-AMP phosphodiesterase 7A (Homo sapiens, UniProt Q13946); experiment: Inhibition of recombinant human PDE7A using cAMP as substrate after 10 mins by PDE-Glo Phosphodiesterase Assay
# Sequence of High affinity 3',5'-cyclic-AMP phosphodiesterase 7A (Q13946 whole entry): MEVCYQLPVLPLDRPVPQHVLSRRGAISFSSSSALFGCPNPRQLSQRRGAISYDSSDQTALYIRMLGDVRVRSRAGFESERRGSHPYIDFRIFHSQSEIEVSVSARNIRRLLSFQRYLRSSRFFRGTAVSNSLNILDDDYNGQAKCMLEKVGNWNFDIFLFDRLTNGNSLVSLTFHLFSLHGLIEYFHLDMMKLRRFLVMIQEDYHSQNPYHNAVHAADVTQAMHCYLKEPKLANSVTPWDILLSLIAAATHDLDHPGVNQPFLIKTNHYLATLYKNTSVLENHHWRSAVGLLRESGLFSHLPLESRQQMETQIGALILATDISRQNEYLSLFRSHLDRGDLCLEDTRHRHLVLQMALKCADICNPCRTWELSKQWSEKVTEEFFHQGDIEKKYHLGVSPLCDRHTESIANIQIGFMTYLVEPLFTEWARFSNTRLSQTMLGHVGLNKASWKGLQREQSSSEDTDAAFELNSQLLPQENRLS
# [17] = target: Transient receptor potential cation channel subfamily A member 1 (Homo sapiens) (UniProt O75762); experiment: Antagonist activity at human TRPA1 expressed in HEK293 cells assessed as decrease in flufenamic acid-evoked increase in intracellular calcium level at 100 uM measured for 180 secs with 1 sec interval by Fluo4-AM dye-based fluorescence assay relative to control; format: cell-based
# Rattus norvegicus [18] = experiment: Antiinflammatory activity in Wistar rat assessed as inhibition of LPS-induced TNF-alpha level at 50 mg/kg, ip measured at 1 hr post dose by ELISA relative to control; format: functional
# Rattus norvegicus [19] = experiment: Antiallodynic activity in Wistar rat assessed as reduction in oxaliplatin-induced neuropathic pain in early phase by measuring paw withdrawal force at 10 mg/kg, ip measured after 60 mins by Von Frey test; format: functional, organism-based
# Mus musculus [20] = experiment: Antiinflammatory activity in formalin-induced nociception Swiss CD-1 mouse model assessed as time spent on licking or biting formalin injected right hind paw during neurogenic phase at 2.5 mg/kg, ip measured during phase 1 (reference value: 33 +/- 1.45 sec); format: functional
# [21] = Plasma concentration in Wistar rat model of LPS-induced inflammation at 50 mg/kg, ip measured at 1.5 hrs post dose by HPLC method; format: ADME, organism-based
# Rattus norvegicus [22] = experiment: Antiinflammatory activity in Wistar rat assessed as inhibition of LPS-induced TNF-alpha level at 50 mg/kg, ip measured at 1.5 hrs post dose by ELISA relative to control; format: functional
# Rattus norvegicus [23] = experiment: Anti-inflammatory activity in Wistar rat assessed as inhibition of carrageenan-induced paw edema at 20 mg/kg, ip measured at 2 hrs post dose relative to control; format: functional
# [24] = Plasma concentration in Wistar rat model of LPS-induced inflammation at 50 mg/kg, ip measured at 1 hr post dose by HPLC method; format: ADME, organism-based
# Rattus norvegicus [25] = experiment: Antiallodynic activity in Wistar rat assessed as reduction in oxaliplatin-induced neuropathic pain in early phase by measuring paw withdrawal force at 1 mg/kg, ip measured after 60 mins by Von Frey test; format: functional, organism-based
# Rattus norvegicus [26] = experiment: Antiallodynic activity in Wistar rat assessed as reduction in oxaliplatin-induced neuropathic pain in late phase by measuring paw withdrawal latency time at 5 mg/kg, ip measured after 60 secs by cold plate test; format: functional, organism-based
# Rattus norvegicus [27] = experiment: Antiallodynic activity in Wistar rat assessed as reduction in oxaliplatin-induced neuropathic pain in late phase by measuring paw withdrawal latency time at 1 mg/kg, ip measured after 60 secs by cold plate test; format: functional, organism-based
# Mus musculus [28] = experiment: Antiinflammatory activity in formalin-induced nociception Swiss CD-1 mouse model assessed as time spent on licking or biting formalin injected right hind paw during […] phase at 2.5 mg/kg, ip measured during phase 2 (reference value: 143.60 sec); format: functional
# Rattus norvegicus [29] = experiment: Antiinflammatory activity in Wistar rat assessed as inhibition of LPS-induced TNF-alpha level at 50 mg/kg, ip measured at 1 to 2 hrs post dose by ELISA relative to control; format: functional
# Rattus norvegicus [30] = experiment: Antiallodynic activity in Wistar rat assessed as reduction in oxaliplatin-induced neuropathic pain in late phase by measuring paw withdrawal force at 10 mg/kg, ip measured after 60 mins by Von Frey test; format: functional, organism-based
# Mus musculus [31] = experiment: Antiinflammatory activity in formalin-induced nociception Swiss CD-1 mouse model assessed as time spent on licking or biting formalin injected right hind paw during neurogenic phase at 5 mg/kg, ip measured during phase 1 (reference value: 75.50 +/- 6.86 sec); format: functional
# Mus musculus [32] = experiment: Antiinflammatory activity in formalin-induced nociception Swiss CD-1 mouse model assessed as time spent on licking or biting formalin injected right hind paw during […] phase at 10 mg/kg, ip measured during phase 2 (reference value: 143.60 sec); format: functional
# Mus musculus [33] = experiment: Antiinflammatory activity in formalin-induced nociception Swiss CD-1 mouse model assessed as time spent on licking or biting formalin injected right hind paw […] at 5 mg/kg, ip measured during phase 2 (reference value: 143.60 sec); format: functional
# Rattus norvegicus [34] = experiment: Antiallodynic activity in Wistar rat assessed as reduction in oxaliplatin-induced neuropathic pain in early phase by measuring paw withdrawal force at 5 to 10 mg/kg, ip measured after 60 mins by Von Frey test; format: functional, organism-based
# Mus musculus [35] = experiment: Antiinflammatory activity in formalin-induced nociception Swiss CD-1 mouse model assessed as time spent on licking or biting formalin injected right hind paw during neurogenic phase at 10 mg/kg, ip measured during phase 1 (reference value: 75.50 +/- 6.86 sec); format: functional
# Mus musculus [36] = experiment: Antiinflammatory activity in formalin-induced nociception Swiss CD-1 mouse model assessed as time spent on licking or biting formalin injected right hind paw during neurogenic phase at 2.5 mg/kg, ip measured during phase 1 (reference value: 75.50 +/- 6.86 sec); format: functional
Structure (SMILES),ED50 (Mus musculus [1]),inhibition in vivo at 20 mg/kg (Rattus norvegicus [4]),inhibition [6],inhibition in vivo at 20 mg/kg (Rattus norvegicus [8]),IC50 [9],Ratio ED50 (Mus musculus [11]),concentration at 2 h [12],inhibition [14],IC50 [16],inhibition [17],concentration at 1.5 h [21],inhibition in vivo at 20 mg/kg (Rattus norvegicus [23]),concentration at 1 h [24],also measured
CCCCOc1nc2c(c(=O)n(C)c(=O)n2C)n1CCCC(=O)Nc1cc(C(C)(C)C)ccc1O,3.44 mg/kg,48%,6%,33.5%,5.43 µM,10 - 13,0.29 µM,7%,5.07 µM,39%,0.74 µM,79.7%,1.98 µM,inhibition in vivo at 50 mg/kg (Rattus norvegicus [2]): 92%; Time (Mus musculus [3]): 21.33 s; Time (Mus musculus [5]): 25.17 s; Activity (Rattus norvegicus [7]): Active; Time (Mus musculus [10]): 49.17 s; Activity (Rattus norvegicus [13]): Active; Time (Mus musculus [15]): 47.67 s; inhibition in vivo at 50 mg/kg (Rattus norvegicus [18]): 85.4%; Activity (Rattus norvegicus [19]): Active; Time (Mus musculus [20]): 32 s; inhibition in vivo at 50 mg/kg (Rattus norvegicus [22]): 90.2%
COc1nc2c(c(=O)n(C)c(=O)n2C)n1CC(=O)Nc1ccc(C(C)(C)C)cc1,2.49 mg/kg,37.1%,40%,30.6%,> 200 µM,10 - 13,1.95 µM,40%,> 200 µM,53%,2.33 µM,18.7%,2.68 µM,Activity (Rattus norvegicus [25]): inactive; Activity (Rattus norvegicus [26]): Active; Activity (Rattus norvegicus [27]): Active; Time (Mus musculus [28]): 72.6 s; inhibition in vivo at 50 mg/kg (Rattus norvegicus [29]): 33 to 44%; Activity (Rattus norvegicus [30]): Active; Time (Mus musculus [31]): 86.33 s; Time (Mus musculus [32]): 31.67 s; Time (Mus musculus [33]): 48 s; Activity (Rattus norvegicus [34]): Active; Time (Mus musculus [35]): 65.17 s; Time (Mus musculus [36]): 69 s
